Measurements from patent publication US5543276A, “Color photographic element containing new epoxy scavengers for residual magenta coupler” (Eastman Kodak Company, priority 1994, dated 1996).

Experiments:
[1] = Change in Status A blue density (photochemical yellowing) of processed unexposed strips under high intensity sunshine radiation; settings: RA-4 processed, 2 weeks room temperature, then two weeks 50 klux high intensity sunshine
Protocol: (§1) The coating format also contains a UV protection layer and an overcoat (not shown). Unexposed strips were process in standard RA-4 developer and then stored at room temperature. The strips were analyzed for residual coupler as a function of time. A set of unprocessed strips were stored at room temperature for the same length of time to check for reaction between coupler and S-1 in raw stock. A second set of unexposed strips were processed in standard RA-4 developer and then subjected to two weeks of 50 klux high intensity sunshine radiation after storage at room temperature for two weeks. The change in Status A blue density was measured.
This coating also contained a UV protection layer and overcoat (not shown). Strips based on the coating were subjected to the same set of tests as in Example 4.

[2] = epoxy compound coated in separate layers adjacent to imaging layer; copending application Ser. No. 08/000,431; cited from earlier work
[3] = Residual magenta coupler M-20 in unexposed strips, raw stock and RA-4 processed; settings: coated M-20 32.8 mg/ft^2; for M-20 remaining, Processed after 2wk / M-20 remaining, Processed after 4wk: unexposed strips, standard RA-4 developer; for M-20 remaining, Processed after 2wk / M-20 remaining, Raw Stock after 2wk RT: 2 weeks room temperature; for M-20 remaining, Processed after 4wk / M-20 remaining, Raw Stock after 4wk: 4 weeks room temperature; for M-20 remaining, Raw Stock after 2wk RT / M-20 remaining, Raw Stock after 4wk: unprocessed strips
Protocol: A dispersion of the magenta coupler M-20 and scavenger coupler S-1 were prepared in the following manner:
The oil phase was prepared by combining 1.875 grams of S-1 with 0.852 grams of myrisitc acid and 30 grams of ethyl acetate. The solution was stirred on a hot plate for about 5 minutes.
The aqueous phase was prepared by combining 3.0 grams of a 10% solution of Alkanol XC with 17.6 grams of a 11.36% solution of Type IV gelatin in water. 26.7 grams of distilled water was then added and the solution was stirred on a hot plate for about five minutes.
The aqueous phase was combined with the oil phase and the mixture was stirred. The mixture was then passed three times through a colloid mill to obtain the dispersion. The ethyl acetate was removed by evaporation under reduced pressure. [drawing 42] The dispersions were then coated in the format shown below (the numbers indicate the amount of each component in mg/ft^2).
as §1, with “measured. […]” for “measured.”

| Structure (SMILES) | Delta Blue Density [1] | loss of coupler prior to processing [2] | M-20 remaining, Processed after 2wk [3] [mg/ft.2] | M-20 remaining, Processed after 4wk [3] [mg/ft.2] | M-20 remaining, Raw Stock after 2wk RT [3] [mg/ft.2] | M-20 remaining, Raw Stock after 4wk [3] [mg/ft.2] |
| --- | --- | --- | --- | --- | --- | --- |
| O=C(OCCCCCCCCCC1CO1)c1ccccc1C(=O)OCCCCCCCCCC1CO1 (centres unmarked) [S-1] | 0.13 | negligible loss of coupler prior to processing | 29.9 | 29.3 | 30.2 | 28.8 |
| O=C(CCCCCCCCC1CO1)Oc1ccc(NS(=O)(=O)c2ccc(F)cc2F)cc1 (centres unmarked) [SI-20] | 0.05 | – | 14.9 | 13.9 | 28.6 | 28.4 |
